Laboratory results published in the NIST ThermoML archive (doi:10.1016/j.tca.2017.09.013).
± gives the expanded uncertainty stated by the source.

Key:
[1] = Molar enthalpy of transition or fusion; conditions: Crystal; DSC
[2] = molar heat capacity at constant pressure; conditions: 101.33 kPa, Metastable liquid, Small sample (50 mg) DSC

| Normal melting temperature (Crystal, DTA) [°C] | Glass transition temperature (Glass, DSC) [°C] | Molar enthalpy of transition or fusion [1] [kcal/mol] | molar heat capacity at constant pressure ([2]; 408 K) [J/K/mol] | molar heat capacity at constant pressure ([2]; 413 K) [J/K/mol] | molar heat capacity at constant pressure ([2]; 418 K) [J/K/mol] | molar heat capacity at constant pressure ([2]; 423 K) [J/K/mol] | molar heat capacity at constant pressure ([2]; 428 K) [J/K/mol] | SMILES |
| --- | --- | --- | --- | --- | --- | --- | --- | --- |
| 334 ± 3 | 115 ± 3 | 8.34 ± 0.55 | 268 ± 36 | 269 ± 38 | 271 ± 40 | 272 ± 42 | 274 ± 44 | Nc1cc[nH]c(=O)n1 [4-amino-2-hydroxypyrimidine] |
| – | – | 6.52 ± 0.693 | – | – | – | – | – | c1ccc2cc3ccccc3cc2c1 [anthracene] |
